pIC50: −log10 of the molar value.
What was measured:
[1] = target: Cathepsin S (Homo sapiens, UniProt P25774); experiment: (§1) Enzyme Inhibition Assay: Enzyme activity is measured by observing the increase in fluorescence intensity caused by cleavage of a peptide substrate containing a fluorophore whose emission is quenched in the intact peptide.Assay buffer: 100 mM potassium phosphate pH 6.5, EDTA-Na 5 mM, Triton X-100 0.001%, DTT 5 mM.Enzymes (all at 1 nM): human and mouse Cathepsin S, Cat K, Cat B, Cat L.Substrate (20 μM): Z-Val-Val-Arg-AMC, except for Cat K which uses Z-Leu-Arg-AMC (both from Bachem).Z=Benzyloxycarbonyl.AMC=7-Amino-4-Methyl-Coumarin.DTT=dithiothreitol.Final volume: 100 μL.Excitation 360 nm, Emission 465 nm.Enzyme is added to the substance dilutions in 96-well microtitre plates and the reaction is started with substrate. Fluorescence emission is measured over 20 minutes, during which time a linear increase is observed in the absence of inhibitor.
[2] = target: Procathepsin L (Homo sapiens, UniProt P07711); experiment: as §1
Chain of Procathepsin L (P07711 whole entry): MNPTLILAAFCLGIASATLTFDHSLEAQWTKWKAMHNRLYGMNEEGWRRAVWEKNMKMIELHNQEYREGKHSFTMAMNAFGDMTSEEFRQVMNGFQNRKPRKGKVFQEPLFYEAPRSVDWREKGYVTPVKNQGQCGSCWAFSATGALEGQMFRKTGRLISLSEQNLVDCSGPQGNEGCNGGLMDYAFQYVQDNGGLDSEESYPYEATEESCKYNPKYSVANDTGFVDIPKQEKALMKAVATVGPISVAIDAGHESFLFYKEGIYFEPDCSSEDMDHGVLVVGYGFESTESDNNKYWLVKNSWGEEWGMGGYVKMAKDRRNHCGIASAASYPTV

Chain of Cathepsin S (P25774 whole entry): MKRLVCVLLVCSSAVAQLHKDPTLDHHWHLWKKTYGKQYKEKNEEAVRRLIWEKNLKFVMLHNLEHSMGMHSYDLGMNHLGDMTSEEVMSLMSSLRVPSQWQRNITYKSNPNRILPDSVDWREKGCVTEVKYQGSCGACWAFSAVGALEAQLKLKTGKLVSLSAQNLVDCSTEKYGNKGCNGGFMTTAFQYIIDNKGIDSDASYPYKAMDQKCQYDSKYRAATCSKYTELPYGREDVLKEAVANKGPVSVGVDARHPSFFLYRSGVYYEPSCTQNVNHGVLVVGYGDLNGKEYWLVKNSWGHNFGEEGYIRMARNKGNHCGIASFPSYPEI

Row | pIC50 [1] | pIC50 [2] | Compound
1 | 8.81 | 6.28 | Cc1cc(-c2ccc(S(=O)(=O)[C@@H]3C[C@@H](C(=O)NC4(C#N)CC4)N(C(=O)C4(c5ncc(Cl)cc5F)CCN4C(=O)OC(C)(C)C)C3)c(Cl)c2)ccn1 (stereo partly drawn)
2 | 8.67 | 7.78 | C[C@H](Oc1ccc(S(=O)(=O)[C@@H]2C[C@@H](C(=O)NC3(C#N)CC3)N(C(=O)C3(c4ncc(Br)cc4F)CN(C)C3)C2)c(Cl)c1)C(F)(F)F
3 | 8.26 | 6.73 | C[C@H](Oc1ccc(S(=O)(=O)[C@@H]2C[C@@H](C(=O)NC3(C#N)CC3)N(C(=O)C3(c4ncc(Br)cc4F)CCN3C(=O)OC(C)(C)C)C2)c(Cl)c1)C(F)(F)F (stereo partly drawn)
4 | 8.95 | 5.93 | Cn1cc(-c2ccc(S(=O)(=O)[C@@H]3C[C@@H](C(=O)NC4(C#N)CC4)N(C(=O)C4(c5ncc(Br)cc5F)CCN4C(=O)OC(C)(C)C)C3)c(Cl)c2)cn1 (stereo partly drawn)
